From patent US6737383B1, “Herbicidal oxadiazolidines” (priority 1999, dated 2004)

Tests used:
[1] = tested on: bedstraw; experiment: Test B pre/postemergence bedstraw; type: in vivo, Galium aparine
Summary of the method: (§1)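 Herbicidal effect was estimated by eye on a ten-point control scale after plants spent twelve to sixteen days in a greenhouse following soil or foliar treatment. Foliar sprays targeted plants at one to four leaves; all doses were formulated in a non-phytotoxic solvent with surfactant.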

[2] = tested on: surinam grass; experiment: Test B pre/postemergence surinam grass; type: in vivo, Brachiaria decumbens
Summary of the method: as §1

[3] = tested on: cocklebur; experiment: Test B pre/postemergence cocklebur; type: in vivo, Xanthium strumarium
Summary of the method: as §1

[4] = tested on: corn; experiment: Test B pre/postemergence corn; type: in vivo, Zea mays
Summary of the method: as §1

[5] = tested on: crabgrass; experiment: Test B pre/postemergence crabgrass; type: in vivo, Digitaria sanguinalis
Summary of the method: as §1

[6] = tested on: giant foxtail; experiment: Test B pre/postemergence giant foxtail; type: in vivo, Setaria faberii
Summary of the method: as §1

[7] = tested on: morningglory; experiment: Test B pre/postemergence morningglory; type: in vivo, Ipomoea hederacea
Summary of the method: as §1

[8] = tested on: pigweed; experiment: Test B pre/postemergence pigweed; type: in vivo, Amaranthus retroflexus
Summary of the method: as §1

[9] = tested on: rape; experiment: Test B pre/postemergence rape; type: in vivo, Brassica napus
Summary of the method: as §1

[10] = tested on: soybean; experiment: Test B pre/postemergence soybean; type: in vivo, Glycine max
Summary of the method: as §1

[11] = tested on: sugar beet; experiment: Test B pre/postemergence sugar beet; type: in vivo, Beta vulgaris
Summary of the method: as §1

[12] = tested on: velvetleaf; experiment: Test B pre/postemergence velvetleaf; type: in vivo, Abutilon theophrasti
Summary of the method: as §1

[13] = tested on: wheat; experiment: Test B pre/postemergence wheat; type: in vivo, Triticum aestivum
Summary of the method: as §1

[14] = tested on: purple nutsedge; experiment: Test B pre/postemergence purple nutsedge; type: in vivo, Cyperus rotundus
Summary of the method: as §1

[15] = tested on: duck salad; experiment: Test B flood test duck salad; type: in vivo, Heteranthera limosa
Summary of the method: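 Each value is a visual injury score relative to controls, with 10 meaning complete control and 0 no effect. Evaluation took place twelve to sixteen days after the 2-leaf-stage plants were treated and kept in the greenhouse.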

[16] = Postemergence, Rate 125 g/ha, scale of 0 to 10 where 0 is no effect and 10 is complete control
[17] = Preemergence, Rate 125 g/ha, 0 is no effect, 10 is complete control
[18] = Preemergence, Rate 250 g/ha, scale 0 to 10, 0 is no effect, 10 is complete control
[19] = Preemergence, Rate 500 g/ha, scale 0 to 10 (0 no effect, 10 complete control)
[20] = Rate 62 g/ha, Postemergence, scale of 0 to 10 where 0 is no effect and 10 is complete control
[21] = Rate 250 g/ha, Postemergence, scale 0 to 10, 0 is no effect, 10 is complete control
[22] = Preemergence, Rate 62 g/ha, scale 0 to 10 (0 no effect, 10 complete control)
[23] = Rate 500 g/ha, Postemergence, scale 0 to 10

CC(C)N(C(=O)n1oc(=O)n(C(C)C)c1=O)c1ccc(F)cc1 [Compound 131]
Bedstraw plant response rating [1, 16]: 8
Bedstraw plant response rating (0 to 10 scale) [1, 17]: 10
Bedstraw plant response rating [1, 18]: 10
Bedstraw plant response rating [1, 19]: 10
Bedstraw plant response rating [1, 20]: 7
Plant response rating, Bedstraw [1, 21]: 9
Bedstraw plant response rating ([1]; Rate 500 g/ha, Postemergence, scale 0 to 10, 0 no effect, 10 complete control): 9
B. signalgrass plant response rating [2, 16]: 5
B. signalgrass plant response rating [2, 22]: 7
B. signalgrass plant response rating (0 to 10 scale) [2, 17]: 8
B. signalgrass plant response rating [2, 18]: 8
B. signalgrass plant response rating [2, 19]: 9
B. signalgrass plant response rating [2, 20]: 4
Plant response rating, B. signalgrass [2, 21]: 8
B. signalgrass plant response rating ([2]; Rate 500 g/ha, Postemergence, scale of 0 to 10 where 0 is no effect and 10 is complete control): 9
Cocklebur plant response rating [3, 16]: 3
Cocklebur plant response rating [3, 22]: 0
Cocklebur plant response rating (0 to 10 scale) [3, 17]: 0
Cocklebur plant response rating [3, 18]: 2
Cocklebur plant response rating [3, 19]: 2
Cocklebur plant response rating [3, 20]: 2
Plant response rating, Cocklebur [3, 21]: 5
Cocklebur plant response rating [3, 23]: 5
Corn plant response rating [4, 16]: 5
Corn plant response rating [4, 22]: 0
Corn plant response rating (0 to 10 scale) [4, 17]: 5
Corn plant response rating [4, 18]: 9
Corn plant response rating [4, 19]: 10
Corn plant response rating [4, 20]: 3
Plant response rating, Corn [4, 21]: 6
Corn plant response rating [4, 23]: 7
Crabgrass plant response rating [5, 16]: 7
Crabgrass plant response rating [5, 22]: 2
Crabgrass plant response rating (0 to 10 scale) [5, 17]: 7
Crabgrass plant response rating [5, 18]: 9
Crabgrass plant response rating [5, 19]: 10
Crabgrass plant response rating [5, 20]: 5
Plant response rating, Crabgrass [5, 21]: 8
Crabgrass plant response rating [5, 23]: 9
Giant foxtail plant response rating [6, 16]: 8
Giant foxtail plant response rating [6, 22]: 10
Giant foxtail plant response rating (0 to 10 scale) [6, 17]: 10
Giant foxtail plant response rating [6, 18]: 10
Giant foxtail plant response rating [6, 19]: 10
Giant foxtail plant response rating [6, 20]: 8
Plant response rating, Giant foxtail [6, 21]: 9
Giant foxtail plant response rating [6, 23]: 9
Morningglory plant response rating [7, 16]: 7
Morningglory plant response rating [7, 22]: 3
Morningglory plant response rating (0 to 10 scale) [7, 17]: 3
Morningglory plant response rating [7, 18]: 5
Morningglory plant response rating [7, 19]: 7
Morningglory plant response rating [7, 20]: 7
Plant response rating, Morningglory [7, 21]: 8
Morningglory plant response rating [7, 23]: 10
Redroot pigweed plant response rating [8, 16]: 6
Redroot pigweed plant response rating [8, 22]: 7
Redroot pigweed plant response rating (0 to 10 scale) [8, 17]: 10
Redroot pigweed plant response rating [8, 18]: 10
Redroot pigweed plant response rating [8, 19]: 10
Redroot pigweed plant response rating [8, 20]: 2
Plant response rating, Redroot pigweed [8, 21]: 8
Redroot pigweed plant response rating [8, 23]: 10
Rape plant response rating [9, 16]: 4
Rape plant response rating [9, 22]: 8
Rape plant response rating (0 to 10 scale) [9, 17]: 10
Rape plant response rating [9, 18]: 10
Rape plant response rating [9, 19]: 10
Rape plant response rating [9, 20]: 1
Plant response rating, Rape [9, 21]: 7
Rape plant response rating [9, 23]: 9
Soybean plant response rating [10, 16]: 7
Soybean plant response rating [10, 22]: 2
Soybean plant response rating (0 to 10 scale) [10, 17]: 3
Soybean plant response rating [10, 18]: 8
Soybean plant response rating [10, 19]: 8
Soybean plant response rating [10, 20]: 5
Plant response rating, Soybean [10, 21]: 8
Soybean plant response rating [10, 23]: 8
Sugarbeets plant response rating [11, 16]: 3
Sugarbeets plant response rating [11, 22]: 7
Sugarbeets plant response rating (0 to 10 scale) [11, 17]: 8
Sugarbeets plant response rating [11, 18]: 10
Sugarbeets plant response rating [11, 19]: 10
Sugarbeets plant response rating [11, 20]: 2
Plant response rating, Sugarbeets [11, 21]: 6
Sugarbeets plant response rating [11, 23]: 8
Velvetleaf plant response rating [12, 16]: 7
Velvetleaf plant response rating [12, 22]: 7
Velvetleaf plant response rating (0 to 10 scale) [12, 17]: 8
Velvetleaf plant response rating [12, 18]: 9
Velvetleaf plant response rating [12, 19]: 10
Velvetleaf plant response rating [12, 20]: 0
Plant response rating, Velvetleaf [12, 21]: 8
Velvetleaf plant response rating [12, 23]: 8
Wheat plant response rating [13, 16]: 3
Wheat plant response rating [13, 22]: 2
Wheat plant response rating (0 to 10 scale) [13, 17]: 8
Wheat plant response rating [13, 18]: 8
Wheat plant response rating [13, 19]: 10
Wheat plant response rating [13, 20]: 3
Plant response rating, Wheat [13, 21]: 5
Wheat plant response rating [13, 23]: 6
Nutsedge plant response rating [14, 16]: 0
Nutsedge plant response rating [14, 22]: 0
Nutsedge plant response rating (0 to 10 scale) [14, 17]: 0
Nutsedge plant response rating [14, 18]: 0
Nutsedge plant response rating [14, 19]: 0
Nutsedge plant response rating [14, 20]: 0
Plant response rating, Nutsedge [14, 21]: 0
Nutsedge plant response rating [14, 23]: 2
Ducksalad plant response rating ([15]; Rate 62 g/ha, headed Pre-emergence (flood test species), scale 0 to 10 (0 no effect, 10 complete control)): 0
Ducksalad plant response rating ([15]; Rate 125 g/ha, Pre-emergence, flood test species, scale 0 to 10 where 0 is no effect and 10 is complete control): 0
Ducksalad plant response rating ([15]; Rate 250 g/ha, headed Pre-emergence (flood test species), scale 0 to 10 (0 no effect, 10 complete control)): 7
Plant response rating, Ducksalad ([15]; Rate 500 g/ha, headed Pre-emergence (flood test species), scale 0 to 10 (0 no effect, 10 complete control)): 9
